Patent US20060046972A1, “Cytotoxic nucleoside analog compound 003 for treating cancer” (Parker Hughes Institute, priority 2004, published 2006)
Several values for one entry are separate records, joined by “and”; a condition that tells them apart may be missing. Identical values can stand only once.

Test system: CD-1 mice
Assay: Acute toxicity of intraperitoneal bolus doses in CD-1 mice
Format: in vivo
Details: for tubular dilation: after the 30 day observation period
Experimental: 1.2.8 Animals Female CD-1 mice (Body weight: ˜25 g; Age: 7 week old) were purchased, from Charles River Laboratories (Willmington, Mass., USA). MMTV Neu-mice [FVB/N-TgN(MMTV neu)202MUL; Jackson Laboratory, Bar Harbor, Me.] were bred to produce multiple litters. All mice were housed in microisolator cages (Lab Products, Inc., Maywood, N.Y., USA) containing autoclaved bedding in a controlled specific pathogen-free (SPF) environment (12-h light/12-h dark photoperiod, 22±1° C., 60±10% relative humidity), which is fully accredited by the USDA (United States Department of Agriculture). Adult male Lewis rats (Body weight: ˜160 g) were obtained from the specific pathogen-free (SPF) breeding facilities of Harlan Sprague Dawley (Indianapolis, Id., USA) at 14 weeks of age. All husbandry and experimental contact made with the mice and rats maintained SPF conditions. The rats were kept in microisolater cages (Allentown Caging Equipment Co., Inc., Allentown, N.J., USA) containing autoclaved food, water, and bedding. Animal studies were approved by Parker Hughes Institute Animal Care and Use Committee and all animal care procedures 1.5 conformed to the Guide for the Care and Use of Laboratory Animals (National Research Council, National Academy Press, Washington D.C. 1996, USA).
The toxicity profile of Compound 003 in CD-1 mice and Lewis rats was examined, using standard procedures as previously reported for other experimental drugs (Uckun, et al., 2003, Arzneimittelforschun. 53:357; Uckun, et al., 2002, Clin Cancer Res. 8: 1224; Uckun, et al., 2002, Antimicrob Agents Chemother. 46:3428). In brief, mice and rats were treated with intraperitoneal injections of vehicle or Compound 003 at multiple dose levels. Compound 003 was administered as a 0.2 mL (for mice) or 0.5 mL (for rats) bolus injection containing 10% DMSO as a vehicle. Animals were allowed free access to autoclaved standard pellet food and tap water throughout the experiments and monitored daily for morbidity and mortality. Animals were electively sacrificed on day 7 or day 30 to determine the toxicity of Compound 003 by examining their blood chemistry profiles, blood counts, and evaluating multiple organs for the presence of toxic lesions. Blood was collected by intracardiac puncture following anesthesia with ketamine:xylazine and immediately heparinized. The blood chemistry profiles were examined using a Synchron CX5CE Chemical Analyzer (Beckman Instruments, Inc., Fullerton, Calif., USA). Blood counts (red blood cells [RBC], white blood cells [WBC] and platelets [Plt]) were determined using a HESKA Vet ABC-Diff Hematology Analyzer (HESKA Corporation, Fort Collins, Colo., USA). Absolute neutrophil counts (ANC) and absolute lymphocyte counts (ALC) were calculated from WBC values after determining the percentages of neutrophils and lymphocytes by a manual differential count. At the time of necropsy, […] from mice (bone, bone marrow, brain, cecum, heart, kidney, large intestine, liver, lung, lymph node, ovary, pancreas, skeletal muscle, skin, small intestine, spleen, stomach, thymus, thyroid gland, urinary bladder, and uterus, as available) and 21 different tissues from rats (bone, bone marrow, brain, coagulating gland, epididymis, heart, large intestine, small intestine, kidney, liver, lung, pancreas, peripheral nerve/spinal nerve, skeletal muscle, skin, spinal cord, spleen, stomach, testes, thymus, urinary bladder) were collected within 15 minutes after sacrifice, gross pathological findings were documented, organs were preserved in 10% neutral phosphate buffered formalin, and processed for histopathological examination. For histopathologic studies, formalin fixed tissues were dehydrated and embedded in paraffin by routine methods. Glass slides with affixed 4-5 micron tissue sections were prepared and stained with Hemotoxylin and Eosin (H&E). […]

[1] = 10 mg/kg single i.p. bolus, Day 7
[2] = 10 mg/kg single i.p. bolus, Day 30
[3] = 20 mg/kg single i.p. bolus, Day 7
[4] = 20 mg/kg single i.p. bolus, Day 30
[5] = 40 mg/kg single i.p. bolus, Day 7
[6] = 40 mg/kg single i.p. bolus, Day 30
[7] = 80 mg/kg single i.p. bolus, Day 7
[8] = 80 mg/kg single i.p. bolus, Day 30

COC(=O)C(C)NP(=O)(OCC1OC(n2cc(C)c(=O)[nH]c2=O)CC1N=[N+]=[N-])Oc1ccc(OC)cc1 (centres unmarked) [Compound 003, 3′-azidothymidine 5′-[p-methoxyphenylmethoxyalaninyl phosphate]]
ALC [1]: 5.5 ± 0.0 ×10^9/L | ANC [1]: 1.2 ± 0.0 ×10^9/L | AST [1]: 137.1 ± 23.1 IU/L | Albumin [1]: 1.5 ± 0.0 g/dL | Ammonia [1]: 174.8 ± 11.8 µmol/L | Amylase [1]: 1728.6 ± 248.5 U/L | BUN [1]: 24.1 ± 0.8 mg/dL | Calcium [1]: 8.9 ± 0.2 mg/dL | Creatinine [1]: 0.3 ± 0.0 mg/dL | Mean Weight Change (g ± SEM) [1]: 0.16 ± 0.15 g | Mean Weight Change [%] [1]: (0.6 ± 0.6%) | Morbidity [1]: 0/20 | Phosphate [1]: 6.2 ± 0.2 mg/dL | RBC [1]: 9.4 ± 0.2 ×10^12/L | Total Bilirubin [1]: 0.7 ± 0.1 mg/dL | Total Protein [1]: 4.1 ± 0.1 g/dL | Toxic Organ Lesions [1]: 0/20 | Triglycerides [1]: 158.3 ± 18.2 mg/dL | WBC [1]: 7.3 ± 0.6 ×10^9/L | Weight Gain [1]: 13/20 | Weight Loss [1]: 7/20 | ALC [2]: 7.5 ×10^9/L and 7.5 ± 0.0 ×10^9/L | ANC [2]: 2.1 ± 0.0 ×10^9/L | AST [2]: 114.0 ± 12.4 IU/L | Albumin [2]: 1.2 ± 0.0 g/dL | Ammonia [2]: 205.3 ± 15.6 µmol/L | Amylase [2]: 1993.5 ± 415.9 U/L | BUN [2]: 21.6 ± 0.7 mg/dL | Calcium [2]: 8.2 ± 0.2 mg/dL | Creatinine [2]: 0.3 ± 0.0 mg/dL | Mean Weight Change (g ± SEM) [2]: 2.61 ± 0.45 g | Mean Weight Change [%] [2]: (10.4 ± 1.8%) | Morbidity [2]: 0/20 | Phosphate [2]: 5.7 ± 0.2 mg/dL | RBC [2]: 9.1 ± 0.1 ×10^12/L | Total Bilirubin [2]: 0.4 ± 0.0 mg/dL | Total Protein [2]: 4.0 ± 0.1 g/dL | Toxic Organ Lesions [2]: 0/20 | Triglycerides [2]: 88.1 ± 10.3 mg/dL | WBC [2]: 9.9 ± 1.0 ×10^9/L | Weight Gain [2]: 18/20 | Weight Loss [2]: 2/20 | ALC [3]: 6.9 ± 0.0 ×10^9/L | ANC [3]: 1.6 ± 0.0 ×10^9/L | AST [3]: 100.0 ± 6.7 IU/L | Albumin [3]: 1.4 ± 0.0 g/dL | Ammonia [3]: 201.9 ± 15.0 µmol/L | Amylase [3]: 1810.3 ± 268.8 U/L | BUN [3]: 23.7 ± 0.7 mg/dL | Calcium [3]: 8.9 ± 0.1 mg/dL | Creatinine [3]: 0.4 ± 0.0 mg/dL | Mean Weight Change (g ± SEM) [3]: -0.04 ± 0.16 g | Mean Weight Change [%] [3]: (−0.1 ± 0.7%) | Morbidity [3]: 0/20 | Phosphate [3]: 6.6 ± 0.2 mg/dL | RBC [3]: 9.0 ± 0.3 ×10^12/L | Total Bilirubin [3]: 0.5 ± 0.1 mg/dL | Total Protein [3]: 4.2 ± 0.1 g/dL | Toxic Organ Lesions [3]: 0/20 | Triglycerides [3]: 144.3 ± 17.5 mg/dL | WBC [3]: 8.7 ± 0.8 ×10^9/L | Weight Gain [3]: 10/20 | Weight Loss [3]: 10/20 | ALC [4]: 6.8 ×10^9/L and 6.8 ± 0.0 ×10^9/L | ANC [4]: 2.0 ± 0.0 ×10^9/L | AST [4]: 107.8 ± 13.2 IU/L | Albumin [4]: 1.1 ± 0.0 g/dL | Ammonia [4]: 150.5 ± 10.3 µmol/L | Amylase [4]: 1587.6 ± 261.5 U/L | BUN [4]: 20.4 ± 0.6 mg/dL | Calcium [4]: 8.1 ± 0.1 mg/dL | Creatinine [4]: 0.3 ± 0.0 mg/dL | Mean Weight Change (g ± SEM) [4]: 3.01 ± 0.28 g | Mean Weight Change [%] [4]: (12.4 ± 1.1%) | Morbidity [4]: 0/20 | Phosphate [4]: 6.2 ± 0.1 mg/dL | RBC [4]: 9.1 ± 0.2 ×10^12/L | Total Bilirubin [4]: 0.5 ± 0.0 mg/dL | Total Protein [4]: 3.8 ± 0.1 g/dL | Toxic Organ Lesions [4]: 0/20 | Triglycerides [4]: 84.6 ± 7.2 mg/dL | WBC [4]: 9.3 ± 0.8 ×10^9/L | Weight Gain [4]: 20/20 | Weight Loss [4]: 0/20 | tubular dilation (20 mg/kg): 2/20 | ALC [5]: 5.5 ± 0.0 ×10^9/L | ANC [5]: 1.7 ± 0.0 ×10^9/L | AST [5]: 134.3 ± 23.2 IU/L | Albumin [5]: 1.5 ± 0.0 g/dL | Ammonia [5]: 366.8 ± 23.7 µmol/L | Amylase [5]: 1597.8 ± 100.0 U/L | BUN [5]: 27.6 ± 0.7 mg/dL | Calcium [5]: 8.8 ± 0.2 mg/dL | Creatinine [5]: 0.5 ± 0.1 mg/dL | Mean Weight Change (g ± SEM) [5]: -0.06 ± 0.21 g | Mean Weight Change [%] [5]: (−0.2 ± 0.9%) | Morbidity [5]: 0/20 | Phosphate [5]: 7.0 ± 0.2 mg/dL | RBC [5]: 9.8 ± 0.3 ×10^12/L | Total Bilirubin [5]: 0.7 ± 0.2 mg/dL | Total Protein [5]: 4.5 ± 0.1 g/dL | Toxic Organ Lesions [5]: 0/20 | Triglycerides [5]: 134.7 ± 21.6 mg/dL | WBC [5]: 7.4 ± 0.7 ×10^9/L | Weight Gain [5]: 9/20 | Weight Loss [5]: 11/20 | ALC [6]: 4.7 ×10^9/L and 4.7 ± 0.0 ×10^9/L | ANC [6]: 1.4 ± 0.0 ×10^9/L | AST [6]: 198.5 ± 51.8 IU/L | Albumin [6]: 1.2 ± 0.0 g/dL | Ammonia [6]: 139.2 ± 8.3 µmol/L | Amylase [6]: 2153.7 ± 411.4 U/L | BUN [6]: 20.5 ± 0.8 mg/dL | Calcium [6]: 7.2 ± 0.2 mg/dL | Creatinine [6]: 0.3 ± 0.0 mg/dL | Mean Weight Change (g ± SEM) [6]: 2.34 ± 0.35 g | Mean Weight Change [%] [6]: (9.6 ± 1.4%) | Morbidity [6]: 0/20 | Phosphate [6]: 5.9 ± 0.3 mg/dL | RBC [6]: 9.1 ± 0.1 ×10^12/L | Total Bilirubin [6]: 0.5 ± 0.1 mg/dL | Total Protein [6]: 3.9 ± 0.1 g/dL | Toxic Organ Lesions [6]: 0/20 | Triglycerides [6]: 74.9 ± 5.0 mg/dL | WBC [6]: 6.2 ± 0.7 ×10^9/L | Weight Gain [6]: 18/20 | Weight Loss [6]: 2/20 | tubular dilation (40 mg/kg): 1/20 | ALC [7]: 6.7 ± 0.0 ×10^9/L | ANC [7]: 2.4 ± 0.0 ×10^9/L | AST [7]: 111.4 ± 7.8 IU/L | Albumin [7]: 1.5 ± 0.1 g/dL | Ammonia [7]: 293.1 ± 23.4 µmol/L | Amylase [7]: 1424.6 ± 37.1 U/L | BUN [7]: 27.7 ± 0.9 mg/dL | Calcium [7]: 9.1 ± 0.2 mg/dL | Creatinine [7]: 0.3 ± 0.0 mg/dL | Mean Weight Change (g ± SEM) [7]: 0.09 ± 0.20 g | Mean Weight Change [%] [7]: (0.4 ± 0.8%) | Morbidity [7]: 0/20 | Phosphate [7]: 6.0 ± 0.2 mg/dL | RBC [7]: 9.3 ± 0.2 ×10^12/L | Total Bilirubin [7]: 0.8 ± 0.2 mg/dL | Total Protein [7]: 4.9 ± 0.2 g/dL | Toxic Organ Lesions [7]: 0/20 | Triglycerides [7]: 197.6 ± 34.7 mg/dL | WBC [7]: 9.5 ± 0.9 ×10^9/L | Weight Gain [7]: 11/20 | Weight Loss [7]: 9/20 | ALC [8]: 3.4 ×10^9/L and 3.4 ± 0.0 ×10^9/L | ANC [8]: 1.6 ± 0.0 ×10^9/L | AST [8]: 154.2 ± 33.8 IU/L | Albumin [8]: 1.2 ± 0.0 g/dL | Ammonia [8]: 178.4 ± 17.9 µmol/L | Amylase [8]: 1397.1 ± 339.3 U/L | BUN [8]: 26.1 ± 1.3 mg/dL | Calcium [8]: 7.7 ± 0.2 mg/dL | Creatinine [8]: 0.3 ± 0.0 mg/dL | Mean Weight Change (g ± SEM) [8]: 3.24 ± 0.29 g | Mean Weight Change [%] [8]: (13.4 ± 1.2%) | Morbidity [8]: 0/20 | Phosphate [8]: 5.8 ± 0.4 mg/dL | RBC [8]: 9.4 ± 0.2 ×10^12/L | Total Bilirubin [8]: 0.6 ± 0.0 mg/dL | Total Protein [8]: 4.1 ± 0.1 g/dL | Toxic Organ Lesions [8]: 0/20 | Triglycerides [8]: 85.6 ± 9.5 mg/dL | WBC [8]: 5.3 ± 0.5 ×10^9/L | Weight Gain [8]: 20/20 | Weight Loss [8]: 0/20 | tubular dilation (80 mg/kg): 1/20 | Kidney tubular degeneration, share of drug-treated mice (40 and 80 mg/kg, following the 7 day period): ~50% | leukopenia / lymphocyte depletion (day 30, 10-80 mg/kg): causes leukopenia in a dose-dependent fashion due to a selective depletion of lymphocytes | overall toxicity (histologic evaluation) (doses up to and including 80mg/kg): nontoxic | hematologic toxicity, renal toxicity, hepatotoxicity (highest dose level of 80 mg/kg/day): no evidence of hematologic toxicity renal toxicity, or hepatotoxicity | LD10 (single i.p. bolus, not reached at highest dose): > 80 mg/kg/day
